Test system: gastric parietal cell
Experiment: Basal acid secretion in gastric parietal cell ([14C]-aminopyrine uptake ratio)
Format: cell-based, rabbit
Protocol: Dose-dependent inhibition of aminopyrine (AP) uptake ratio in parietal cell suspension after CPP-1 treatment was measured.
Parietal cells (PC) were isolated from New Zealand White rabbits (weighing ^˜2.5 kg) essentially according to Berglindh (1984) and as modified by Mazzeo et al. (1988). The PC preparations were nearly 90% pure and viable. The effect of CPP-1 on basal and histamine stimulated acid secretion in parietal cells was examined as follows. The PC suspension was incubated for 10 min at 37° C. with gentle stirring and continuous slow top gassing with oxygen. The [^14C]-aminopyrine (115 mCi/mmole) was added to the suspension at […], and incubation was continued for another 10 min. One-milliliter aliquot of PC (^˜5×10^6 cells) was added to various concentrations of CPP-1 in the presence and the absence of histamine (0.1 mM) and incubated for 20 min at 37° C. with slow shaking and oxygen top gassing. At the end of the incubation, the PC suspensions were centrifuged, supernatant carefully aspired off and the pellets solubilized in scintillation fluid containing Triton X-100. The resulting solution was counted in a liquid scintillation counter. The aminopyrine accumulation was determined as the ratio of intra- to extracellular aminopyrine according to Mazzeo et al. (1988).

## O=c1cc(-c2ccccc2)oc2cc(OCCCCCCN3CCCCC3)cc(O)c12 [CPP-1, 5-Hydroxy-2-phenyl-7-(6-piperidin-1-yl-hexyloxy)-chromen-4-one]
Oryctolagus cuniculus, rabbit gastric parietal cell, aminopyrine uptake ratio
  IC50: ~5 µg/mL
Parietal cells
  fold less potent than omeprazole in inhibiting basal acid secretion: 2-3 fold
  potency relative to cimetidine, basal acid secretion: much more potent than cimetidine

— US9642854B2, “Flavanoid compounds and process for preparation thereof” (Council of Scientific & Industrial Research, priority 2009, dated 2017)
